The values below come from ChEMBL document CHEMBL1154504, “Discovery and development of heat shock protein 90 inhibitors” (Bioorg Med Chem, 2009).

In brackets after ≈: the same amount, converted by molar mass.

Data set [1] concerns NCI-N87. The data set is described as follows: Antitumor activity in human NCI-N87 cells xenografted mouse assessed as inhibition of tumor growth at 125 mg/kg, po administered daily once for 5 days per week measured after 5 weeks. It is filed as functional. The following applies: read-out: GI. Background: Xenograft models place foreign cells or tissue in a host animal.
For data set [2], the target named is T1, Heat shock protein HSP 90-beta (Homo sapiens, UniProt P08238). The data set is described as follows: Inhibition of Hsp90 assessed as Her2 degradation by cell based assay.
T1 sequence (P08238 whole entry): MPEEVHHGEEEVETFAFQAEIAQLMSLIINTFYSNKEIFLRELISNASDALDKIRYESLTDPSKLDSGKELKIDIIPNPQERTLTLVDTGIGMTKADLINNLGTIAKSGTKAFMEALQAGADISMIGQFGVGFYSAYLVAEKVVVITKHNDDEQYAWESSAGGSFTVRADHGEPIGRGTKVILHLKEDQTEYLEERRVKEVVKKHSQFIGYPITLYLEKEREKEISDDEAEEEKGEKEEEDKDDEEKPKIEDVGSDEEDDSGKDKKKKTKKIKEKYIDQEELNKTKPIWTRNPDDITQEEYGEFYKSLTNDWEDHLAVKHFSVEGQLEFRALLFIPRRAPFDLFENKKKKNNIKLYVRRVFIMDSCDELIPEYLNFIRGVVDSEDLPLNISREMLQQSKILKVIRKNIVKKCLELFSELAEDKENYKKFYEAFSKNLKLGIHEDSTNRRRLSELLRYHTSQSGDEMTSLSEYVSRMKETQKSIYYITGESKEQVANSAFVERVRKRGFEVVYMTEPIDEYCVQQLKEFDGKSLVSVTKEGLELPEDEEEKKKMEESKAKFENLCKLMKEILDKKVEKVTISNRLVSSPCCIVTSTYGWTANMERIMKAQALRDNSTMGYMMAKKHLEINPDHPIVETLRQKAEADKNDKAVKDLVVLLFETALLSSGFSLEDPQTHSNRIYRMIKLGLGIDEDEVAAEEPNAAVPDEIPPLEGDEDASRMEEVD
For data set [3], the system named is NCI-N87. Put plainly: Antitumor activity in human NCI-N87 cells xenografted mouse assessed as inhibition of tumor growth at 60 mg/kg, po administered daily once for 5 days per week measured after 5 weeks. The following applies: read-out: GI. It is filed as functional.
Data set [4] has as its system HCT-116. Put plainly: Antitumor activity in human HCT116 cells xenografted mouse assessed as inhibition of tumor growth at 50 mg/kg, ip. Format: functional. The following applies: HCT-116, ip, route intraperitoneal, read-out: GI.
Data set [5] addresses T1, Heat shock protein HSP 90-beta. Put plainly: Inhibition of Hsp90 in human SKBR3 cells assessed as Her2 degradation. Format: cell-based, SK-BR-3.
The target is the same in data set [6]. Put plainly: Inhibition of Hsp90.
The target is the same in data set [7]. Put plainly: Binding affinity to Hsp90 in human SKBR3 cells. It is filed as cell-based, SK-BR-3.
The next data set in a line: cells. The following applies: Homo sapiens, NCI60, read-out: GI.
Data set [8] has as its system HCT-116. The data set is described as follows: cells. To be noted: Homo sapiens.
Description: Antiproliferative against human HCT116 cells
Data set [9] has as its target ATP-dependent molecular chaperone HSP82 (Saccharomyces cerevisiae S288c, UniProt P02829). The data set is described as follows: Binding affinity to yeast Hsp90 ATPase activity.
Data set [10] addresses T1, Heat shock protein HSP 90-beta. Put plainly: Inhibition of Hsp90 in human MCF7 cells assessed as Her2 degradation. It is filed as cell-based.
A short description of data set [11]: Solubility in water. Format: physicochemical.
The test system of data set [12] is MCF7. The data set is described as follows: Cytotoxicity against human MCF7 cells. It is filed as functional, cell-based.
Data set [13] deals with MCF7. The data set is described as follows: Antitumor activity in human MCF7 cells xenografted mouse assessed as reduction of tumor burden at 200 mg/kg, ip administered alternative days. It is filed as functional. Also noted: scale not given: the % may be the effect or the level left. The following applies: route intraperitoneal.
Data set [14] deals with T1, Heat shock protein HSP 90-beta. The data set is described as follows: Binding affinity to Hsp90 by fluorescence polarization assay.
Data set [15] concerns the target Receptor tyrosine-protein kinase erbB-2 (Homo sapiens, UniProt P04626). Put plainly: Inhibition of Her2 in human SKBR3 cells. Format: cell-based, SK-BR-3.
Data set [16] is described as follows: Inhibition of Rous sarcoma virus v-Src.
Data set [17] relates to NCI-N87. Put plainly: Antitumor activity in human NCI-N87 cells xenografted mouse assessed as inhibition of tumor growth at 200 mg/kg, po administered daily once for 5 days per week measured after 30 days. It is filed as functional. The following applies: read-out: GI.
For data set [18], the system named is HCT-116. The data set is described as follows: Antitumor activity in human HCT116 cells xenografted mouse assessed as inhibition of tumor growth at 100 mg/kg, ip. Format: functional. The following applies: HCT-116, ip, route intraperitoneal, read-out: GI.

Sequence of Receptor tyrosine-protein kinase erbB-2 (P04626 whole entry): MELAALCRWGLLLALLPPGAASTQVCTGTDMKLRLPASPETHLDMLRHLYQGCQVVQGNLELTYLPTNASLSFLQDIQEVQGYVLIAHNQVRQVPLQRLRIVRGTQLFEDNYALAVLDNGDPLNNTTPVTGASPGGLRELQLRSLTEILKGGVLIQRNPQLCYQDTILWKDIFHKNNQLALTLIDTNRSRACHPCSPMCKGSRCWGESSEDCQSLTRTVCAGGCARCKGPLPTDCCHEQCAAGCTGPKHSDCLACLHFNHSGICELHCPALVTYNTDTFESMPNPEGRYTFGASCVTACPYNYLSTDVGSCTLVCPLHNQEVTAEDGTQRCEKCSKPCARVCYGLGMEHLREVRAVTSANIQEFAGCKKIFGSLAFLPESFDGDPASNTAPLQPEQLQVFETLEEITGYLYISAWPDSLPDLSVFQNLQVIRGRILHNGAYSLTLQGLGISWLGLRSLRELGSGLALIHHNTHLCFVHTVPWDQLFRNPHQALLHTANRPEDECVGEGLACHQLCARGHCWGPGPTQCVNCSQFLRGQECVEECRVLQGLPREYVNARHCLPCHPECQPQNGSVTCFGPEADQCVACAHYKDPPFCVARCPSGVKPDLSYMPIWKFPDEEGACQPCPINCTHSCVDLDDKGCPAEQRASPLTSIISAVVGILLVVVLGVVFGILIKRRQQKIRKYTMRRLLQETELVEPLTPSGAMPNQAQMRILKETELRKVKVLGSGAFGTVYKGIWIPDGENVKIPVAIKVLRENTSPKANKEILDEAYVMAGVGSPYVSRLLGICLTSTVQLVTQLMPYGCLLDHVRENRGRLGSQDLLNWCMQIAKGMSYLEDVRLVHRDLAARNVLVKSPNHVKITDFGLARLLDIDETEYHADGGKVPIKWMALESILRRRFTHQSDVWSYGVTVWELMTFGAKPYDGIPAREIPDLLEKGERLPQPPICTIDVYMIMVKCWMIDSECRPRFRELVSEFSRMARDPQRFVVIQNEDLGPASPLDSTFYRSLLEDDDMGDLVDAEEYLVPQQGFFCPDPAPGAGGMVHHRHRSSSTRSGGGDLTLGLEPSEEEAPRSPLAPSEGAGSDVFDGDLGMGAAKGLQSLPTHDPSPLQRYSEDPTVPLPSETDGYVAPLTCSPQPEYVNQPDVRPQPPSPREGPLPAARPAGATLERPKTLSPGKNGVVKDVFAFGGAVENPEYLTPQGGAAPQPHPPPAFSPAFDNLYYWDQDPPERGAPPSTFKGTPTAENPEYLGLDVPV
Sequence of ATP-dependent molecular chaperone HSP82 (P02829 whole entry): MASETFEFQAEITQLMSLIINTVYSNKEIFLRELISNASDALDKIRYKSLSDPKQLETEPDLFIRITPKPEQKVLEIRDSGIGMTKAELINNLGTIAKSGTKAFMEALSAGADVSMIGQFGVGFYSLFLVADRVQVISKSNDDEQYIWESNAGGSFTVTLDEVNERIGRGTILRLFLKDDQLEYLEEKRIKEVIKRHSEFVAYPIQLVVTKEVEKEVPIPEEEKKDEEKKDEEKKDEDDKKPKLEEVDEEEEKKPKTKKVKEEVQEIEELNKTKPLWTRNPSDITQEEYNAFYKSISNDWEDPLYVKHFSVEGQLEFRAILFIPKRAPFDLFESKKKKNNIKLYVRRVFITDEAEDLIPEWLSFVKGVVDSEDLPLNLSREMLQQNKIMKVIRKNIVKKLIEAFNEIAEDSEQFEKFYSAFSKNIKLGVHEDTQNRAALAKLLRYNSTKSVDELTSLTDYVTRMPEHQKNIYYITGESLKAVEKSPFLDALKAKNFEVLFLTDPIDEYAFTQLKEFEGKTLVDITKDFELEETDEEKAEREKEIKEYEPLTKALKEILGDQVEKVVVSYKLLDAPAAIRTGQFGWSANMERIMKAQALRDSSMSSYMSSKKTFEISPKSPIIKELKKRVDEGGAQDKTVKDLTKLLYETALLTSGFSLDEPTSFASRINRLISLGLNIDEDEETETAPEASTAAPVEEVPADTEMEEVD

Take `COc1c(C)ncc(Cn2cnc3c(Cl)nc(N)nc32)c1C`: the inhibition in vivo at 125 mg/kg in the data set with NCI-N87 [1] turned out to be 87%. The IC50 (in general, the concentration that inhibits the measured activity by half) in data set [2] is 0.02 µM. For the same molecule, the inhibition in vivo at 60 mg/kg in the data set on NCI-N87 [3] came to 83%.
As for `CCNC(=O)c1noc(-c2cc(C(C)C)c(O)cc2O)c1-c1ccc(CN2CCOCC2)cc1` [LUMINESPIB], in the data set on HCT-116 [4], the inhibition in vivo at 50 mg/kg amounted to 50%.
Turning to `C#CCCCn1c(Sc2cc3c(cc2Br)OCO3)nc2c(N)ncnc21`, the IC50 in data set [5] is 0.3 µM. Also, a half-maximal effect in data set [6] (EC50) was put at 0.03 µM.
Consider `CO[C@H]1C[C@H](C)Cc2cc(O)cc(c2)NC(=O)/C=C/CC[C@H](OC)[C@@H](OC(N)=O)/C(C)=C/[C@H](C)[C@H]1O`, for which the Kd (commonly the free concentration of one partner at which half of the binding sites on the other are occupied at equilibrium, for simple one-to-one binding) in data set [7] is 0.016 µM.
Consider `COC1=C2C[C@@H](C)C[C@H](OC)[C@H](O)[C@@H](C)/C=C(\C)[C@H](OC(N)=O)[C@@H](OC)/C=C\C=C(/C)C(=O)NC(=CC1=O)C2=O` [GELDANAMYCIN], for which the inhibition of growth at 0.013 µM in the data set “cells” was 50%.
Regarding `Oc1cc(O)c(-c2n[nH]cc2N2CCN(Cc3ccccc3)CC2)cc1Cl`, the GI50 (in general, the concentration that inhibits growth by half) with HCT-116 [8] was 6.5 µM.
On to `Cc1[nH]nc(-c2cc(Cl)c(O)cc2O)c1-c1ccc2c(c1)OCCO2`, for which the IC50 in [9] is below 1 µM. The same molecule came in with a concentration for 50% growth inhibition (GI50) in the data set with HCT-116 [8] of 4 µM.
As to `Nc1ncnc2c1nc(Sc1nc3cccc(Cl)c3s1)n2CCNC1CC1`, in data set [10], the IC50 was found to be 0.11 µM.
Take `COc1ccc(I)c(Sc2nc3c(N)ncnc3n2CCCNC(C)(C)C)c1`: the solubility (commonly the concentration that dissolves in the medium under given conditions) in [11] is above 10000 µg/mL.
Consider `C[C@@H]1C[C@H]2C[C@@H]2/C=C\C=C\C(=O)Cc2c(Cl)c(O)cc(O)c2C(=O)O1` [CYCLOPROPARADICICOL], for which, in the data set on MCF7 [12], the half-maximal inhibitory concentration (IC50) was 0.043 µM. The same molecule yielded an ED50 in [6] of 0.16 µM.
On to `C#CCCCn1c(Cc2cc(OC)c(OC)c(OC)c2Cl)nc2c(N)nc(F)nc21`, for which, in the data set on MCF7 [13], the Activity is 72%.
In turn, `C[C@H]1CCCC(=O)CCCCCc2cc(O)cc(O)c2C(=O)O1` [ZEARALANONE] returned an IC50 in data set [6] of 0.09 µM.
`CS(=O)(=O)c1ccc(CN2CCN(c3cn[nH]c3-c3cc(Cl)c(O)cc3O)CC2)cc1`: the IC50 in data set [14] came out at 0.74 µM. It took 3.1 µM to inhibit growth in the data set on HCT-116 [8] by half (GI50).
`C[C@@H]1C[C@H]2O[C@@H]2/C=C\C=C\C(=O)Cc2c(Cl)c(O)cc(O)c2C(=O)O1` [RADICICOL] yielded an IC50 in the data set with MCF7 [12] of 0.023 µM.
Take `Cc1nc(-c2c(-c3ccc(O)cc3O)noc2C(F)(F)F)cs1`: half-maximal inhibition in data set [6] (IC50) was put at 9 µM.
Consider `CC(C)(C)CNCCn1c(Sc2nc3cccc(Cl)c3s2)nc2c(N)ncnc21`, for which, in [10], the IC50 turned out to be 0.035 µM.
`C[C@H]1C[C@H]2O[C@@H]2CC/C=C/C(=O)Cc2c(Cl)c(O)cc(O)c2C(=O)O1` [POCHONIN A]: in data set [6], the IC50 was 0.09 µM.
With `CCCCn1c(Sc2nc3cccc(Cl)c3s2)nc2c(N)ncnc21`, the IC50 in [10] was determined as 0.18 µM.
On to `Cc1cc(C#Cc2ccccc2/C=N/N2CCOC2=O)nc(N)n1`, for which the affinity in data set [14] corresponds to a Ki of 4 µM.
In turn, `Oc1cc(O)c(-c2noc3ccc(NCCN4CCOCC4)cc23)cc1Cl` gave a half-inhibitory concentration (IC50) in data set [14] of 0.03 µM.
`CCc1cc(-c2[nH]nc(C)c2-c2ccc3c(c2)OCCO3)c(O)cc1O` gave a concentration for 50% growth inhibition (GI50) in the data set with HCT-116 [8] of 4.1 µM.
`C=CCNC1=C2C[C@@H](C)C[C@H](OC)[C@H](O)[C@@H](C)/C=C(\C)[C@H](OC(N)=O)[C@@H](OC)/C=C\C=C(/C)C(=O)NC(=CC1=O)C2=O` [TANESPIMYCIN] returned an IC50 in [15] of 0.031 µM. For the same molecule, the solubility in data set [11] amounted to 50 µg/mL (≈ 0.0854 mM).
On to `C=CCNc1c(O)cc2c(O)c1C[C@@H](C)C[C@H](OC)[C@H](O)[C@@H](C)/C=C(\C)[C@H](OC(N)=O)[C@@H](OC)/C=C\C=C(/C)C(=O)N2.Cl` [RETASPIMYCIN HYDROCHLORIDE], for which, in [11], the solubility was above 250000 µg/mL.
`C[C@@H]1C/C=C/CC/C=C/C(=O)Cc2c(Cl)c(O)cc(O)c2C(=O)O1` [POCHONIN D] showed an IC50 in data set [6] of 0.08 µM.
Molecule `C[C@@H]1C[C@H]2O[C@@H]2\C=C/C=C/C(=N\OC(=O)N2CCCCC2)Cc2c(Cl)c(O)cc(O)c2C(=O)O1` displayed an IC50 in data set [16] of 0.025 µM.
`COc1ccc(I)c(Sc2nc3c(N)ncnc3n2CCNCC(C)(C)C)c1`: the solubility in data set [11] was above 10000 µg/mL. Moreover, in the data set with NCI-N87 [17], the inhibition in vivo at 200 mg/kg was 70%.
For `CCNC(=O)c1noc(-c2cc(C(C)C)c(O)cc2O)c1-c1ccc(CN(CC)CC)cc1`, in the data set with HCT-116 [8], halving of growth (GI50) required 0.006 µM.
`CCNC(=O)c1noc(-c2cc(Cl)c(O)cc2O)c1-c1ccc(OC)cc1`: the inhibition in vivo at 100 mg/kg in the data set with HCT-116 [18] was 30%.
For `CC(C)NCCCn1c(Cc2cc3c(cc2I)OCO3)nc2c(N)nc(F)nc21`, the EC50 (in general, the concentration needed to bring the measured effect to its halfway point) in data set [14] stood at 0.022 µM. In addition, the IC50 in data set [5] stood at 0.09 µM.
`O=S(=O)(Nc1ccc(O)c(-c2c(O)ccc3ccccc23)c1)c1cc(Cl)ccc1Cl` came in with a concentration for 50% growth inhibition (GI50) in the data set on HCT-116 [8] of 29 µM.
